We go through ten compounds from patent publication US20040127492A1 (Pharmacia Corporation, priority 2002, published 2004).

Read-outs that look alike come from different tables or passages of the source.

The target of one assay is MAPKAPK2 (MK-2) (Homo sapiens, UniProt P49137). In words: Determination of MK-2 IC50 (HSP-peptide phosphorylation, anion exchange resin capture assay). The format is biochemical. A digest of the protocol: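 MAPKAPK2, preactivated by p38α with 0.25 mM ATP for 1 h at 30° C, used at 15 nM to phosphorylate HSP-peptide with 0.03 mM ATP plus [γ33P]ATP, pH 7.5, 2% DMSO, 30 min at 30° C. Labelled peptide counted after anion-exchange resin capture; IC50 from six ten-fold dilutions, triplicate.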
Sequence of MAPKAPK2 (MK-2) (P49137 whole entry, species assumed): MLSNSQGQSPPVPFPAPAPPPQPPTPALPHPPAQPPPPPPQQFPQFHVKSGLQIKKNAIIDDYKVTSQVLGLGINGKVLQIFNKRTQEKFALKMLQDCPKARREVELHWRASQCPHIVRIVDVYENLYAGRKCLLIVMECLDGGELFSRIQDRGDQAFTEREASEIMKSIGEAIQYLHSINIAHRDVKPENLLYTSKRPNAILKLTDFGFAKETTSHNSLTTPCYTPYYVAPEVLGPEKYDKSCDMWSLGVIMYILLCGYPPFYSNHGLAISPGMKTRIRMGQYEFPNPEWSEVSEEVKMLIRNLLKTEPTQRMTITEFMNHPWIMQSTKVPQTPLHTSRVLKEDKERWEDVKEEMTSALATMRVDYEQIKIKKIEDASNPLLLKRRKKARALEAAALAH

The target of the next assay is MK-3 (Homo sapiens, UniProt Q16644). Description: MK-3 inhibition IC50 (similar method to MK-2, with appropriate modifications). The format is biochemical. To be noted: read-out: MK-3 Avg. IC50.
Sequence of MK-3 (Q16644 whole entry, species assumed): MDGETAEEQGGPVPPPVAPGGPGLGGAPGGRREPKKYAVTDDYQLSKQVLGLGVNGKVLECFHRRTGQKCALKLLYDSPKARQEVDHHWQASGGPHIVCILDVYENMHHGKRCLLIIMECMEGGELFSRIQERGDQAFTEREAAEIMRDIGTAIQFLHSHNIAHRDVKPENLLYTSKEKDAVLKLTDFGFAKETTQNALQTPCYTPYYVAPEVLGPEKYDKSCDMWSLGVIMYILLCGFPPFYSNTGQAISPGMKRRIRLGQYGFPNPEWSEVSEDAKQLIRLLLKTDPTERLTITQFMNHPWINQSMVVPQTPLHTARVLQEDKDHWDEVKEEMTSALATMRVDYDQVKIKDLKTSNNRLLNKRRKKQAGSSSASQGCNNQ
A further assay deals with endotoxin-induced shock. Conditions: murine model of endotoxin-induced shock; cited from earlier work.
In assay [1] the test system is collagen-induced arthritis. Conditions: mouse collagen-induced arthritis; cited from earlier work.
The subject of a further assay is adjuvant arthritis. Conditions: rat adjuvant arthritis; cited from earlier work.
The subject of a further assay is granulomas. Conditions: laboratory rats; cited from earlier work.
The mark [2] stands for this setting: Table 1, phenoxypyrazole MK-2 inhibitors, read-out: MK-2 Avg, IC50.
Setting [3] is: Table 1, phenoxypyrazole MK-2 inhibitors.

Take `COC(=O)c1[nH]nc2c1CCc1cc(OC)ccc1-2` [Example 182]: the half-maximal inhibitory concentration (IC50) at MAPKAPK2 (MK-2) (setting [2]) and on MK-3 (setting [3]) was over 200 µM each time.

On to `COC(=O)c1[nH]nc2c1CCc1cc(OC)c(Br)cc1-2` [Example 183], for which the IC50 at MAPKAPK2 (MK-2) (setting [2]) and at MK-3 (setting [3]) was over 200 µM in each case.

For `COC(=O)c1c2c(nn1CCCNC(=O)OC(C)(C)C)-c1cc(Br)c(OC)cc1CC2` [Example 184], the IC50 at MAPKAPK2 (MK-2) (setting [2]) and at MK-3 (setting [3]) was over 200 µM throughout.

On to `COC(=O)c1c2c(nn1CCNC(=O)OC(C)(C)C)-c1cc(Br)c(OC)cc1CC2` [Example 185], for which the IC50 on MAPKAPK2 (MK-2) (setting [2]) and on MK-3 (setting [3]) was over 200 µM in each case.

Consider `COC(=O)c1c2c(nn1CCCNC(=O)OC(C)(C)C)-c1ccc(OC)cc1CC2` [Example 186], for which the IC50 at MAPKAPK2 (MK-2) (setting [2]) and at MK-3 (setting [3]) was over 200 µM throughout.

`O=C1NCCn2nc3c(c21)CCc1cnc(N2CCSCC2)cc1-3` [Example 203]: the 50% inhibitory concentration (IC50) on MAPKAPK2 (MK-2) (read-out: MK-2 Avg. IC50) was 35.6 µM; at MK-3 it was 3.3 µM.

Turning to `N#CC(N)CCn1nc2c(c1C(=O)O)CCc1cnccc1-2` (centres unmarked) [Example 207], the values for the IC50 on MAPKAPK2 (MK-2) (read-out: MK-2 Avg. IC50) and on MK-3 were 36.9 µM and 186 µM, respectively.

Consider `CN1CCN(c2cc3c(cn2)CCc2c-3nn3c2C(=O)NCC3)CC1` [Example 245], for which the IC50 at MAPKAPK2 (MK-2) (read-out: MK-2 Avg. IC50) is 96.8 µM; on MK-3 it was 108 µM.

Regarding `C[S+]([O-])c1ccc(-c2nc(-c3ccncc3)c(-c3ccc(F)cc3)[nH]2)cc1` (centres unmarked) [SB203580], the mortality entry in the assay on endotoxin-induced shock is listed as “reduce mortality”. In addition, the development of arthritis result (in assay [1]; in the assay on adjuvant arthritis) was “inhibit the development” each time.

Consider `Nc1nccc(-c2c(-c3ccc(F)cc3)ncn2C2CCNCC2)n1` [SB 220025], for which the “vascular density of granulomas” value with granulomas is “significant dose-dependent decrease”.

Usually IC50 stands for the point on the concentration scale where inhibition reaches its midpoint.
